Assay results as given in PMC6941823, “A dispensable paralog of succinate dehydrogenase subunit C mediates standing resistance towards a subclass of SDHI fungicides in Zymoseptoria tritici” (PLoS Pathogens, 2019).
Read-outs that look alike come from different tables or passages of the source.

How the values were obtained:
[1] = target: SQR of 06STD024 (SDHC / altC) mitochondria (Zymoseptoria tritici, UniProt A0A1X7RQW2+F9X9V6+F9XH52+O42772); assay: Succinate-quinone (SQR) SDHI sensitivity assay on purified mitochondria, 06STD024; format: biochemical; details: for RF (resistance factor), 06STD024 (SDHC / altC): IC50 ratio compared to IPO323 values; for IC50: mitochondria of field isolate 06STD024, mean of three ± SD
Sequence of SQR of 06STD024 (SDHC / altC) mitochondria (A0A1X7RQW2 36-181): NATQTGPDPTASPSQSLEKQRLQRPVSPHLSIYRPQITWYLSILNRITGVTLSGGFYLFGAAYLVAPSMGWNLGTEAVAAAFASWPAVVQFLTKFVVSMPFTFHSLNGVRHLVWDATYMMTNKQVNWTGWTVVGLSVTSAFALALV
Sequence of SQR of 06STD024 (SDHC / altC) mitochondria (O42772 19-297): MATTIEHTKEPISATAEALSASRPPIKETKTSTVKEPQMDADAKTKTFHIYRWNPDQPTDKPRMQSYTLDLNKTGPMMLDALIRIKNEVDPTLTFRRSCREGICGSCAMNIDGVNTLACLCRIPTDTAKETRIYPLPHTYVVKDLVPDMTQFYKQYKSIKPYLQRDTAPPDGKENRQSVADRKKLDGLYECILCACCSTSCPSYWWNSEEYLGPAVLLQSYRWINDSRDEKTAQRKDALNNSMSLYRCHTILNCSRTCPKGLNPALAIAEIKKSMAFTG
Sequence of SQR of 06STD024 (SDHC / altC) mitochondria (F9X9V6 1-193): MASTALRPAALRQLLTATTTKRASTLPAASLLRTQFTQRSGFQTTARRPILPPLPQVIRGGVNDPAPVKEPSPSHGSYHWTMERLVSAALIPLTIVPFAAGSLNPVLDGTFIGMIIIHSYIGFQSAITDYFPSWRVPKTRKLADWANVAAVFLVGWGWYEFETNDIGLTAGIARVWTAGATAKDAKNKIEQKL
Sequence of SQR of 06STD024 (SDHC / altC) mitochondria (F9XH52 44-187): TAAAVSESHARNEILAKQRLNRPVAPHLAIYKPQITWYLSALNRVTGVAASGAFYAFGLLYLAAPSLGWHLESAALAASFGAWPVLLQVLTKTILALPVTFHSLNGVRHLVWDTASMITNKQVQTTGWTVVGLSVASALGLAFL
Sequence of SQR of 06STD024 (SDHC / altC) mitochondria (F9WWR1 29-643 partner): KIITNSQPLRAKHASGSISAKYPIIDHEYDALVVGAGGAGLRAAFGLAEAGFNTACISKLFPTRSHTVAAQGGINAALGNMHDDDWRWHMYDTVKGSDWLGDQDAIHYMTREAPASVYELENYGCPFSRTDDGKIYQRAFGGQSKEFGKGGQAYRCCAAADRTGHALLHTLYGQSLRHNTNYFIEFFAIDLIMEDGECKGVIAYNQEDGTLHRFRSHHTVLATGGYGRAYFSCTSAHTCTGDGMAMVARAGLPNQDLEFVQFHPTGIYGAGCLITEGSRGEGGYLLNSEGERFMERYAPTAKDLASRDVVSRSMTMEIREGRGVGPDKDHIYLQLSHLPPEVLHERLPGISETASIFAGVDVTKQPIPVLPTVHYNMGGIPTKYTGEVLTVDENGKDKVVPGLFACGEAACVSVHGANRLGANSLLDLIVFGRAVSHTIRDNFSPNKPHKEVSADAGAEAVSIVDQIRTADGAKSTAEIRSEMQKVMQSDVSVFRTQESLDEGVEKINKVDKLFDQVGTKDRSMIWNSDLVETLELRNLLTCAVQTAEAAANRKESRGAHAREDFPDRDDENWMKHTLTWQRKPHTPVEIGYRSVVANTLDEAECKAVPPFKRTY
Method in brief: (§1)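 Succinate:ubiquinone/DCPIP reductase inhibition measured on purified mitochondria from Zymoseptoria tritici strains carrying either a single C-subunit gene (ZtSDHC1, ZtSDHC1_A84I or ZtSDHC3) or both ZtSDHC1 and ZtSDHC3; pTet::SDHC3 transformant tested under repressed and induced conditions.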

[2] = tested on: Zymoseptoria tritici field and genetically modified strains; assay: Liquid culture assay for fungicide sensitivity determination; format: cell-based; details: Zymoseptoria tritici
Method in brief: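 EC50s from liquid culture growth tests with field isolates and modified strains. Population monitoring used final concentrations 100 to 0.0001 mg.L^-1 in 10x steps (7 levels plus DMSO control); refined panel profiling used 0.5 mM to 0.47 nM in 4x steps (11 levels plus DMSO).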

[3] = target: WT-SQR (SDHC), IPO323 mitochondria (Zymoseptoria tritici, UniProt F9X9V6+F9XH52+O42772); assay: Succinate-quinone (SQR) SDHI sensitivity assay on purified mitochondria, IPO323; format: biochemical
Method in brief: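 Mitochondria purified from each strain were used for succinate:ubiquinone/DCPIP reductase assays, with suspensions adjusted to similar initial velocity (1 OD595nm hour^-1). Inhibitor was tested at 0.047 nM–50 μM in 4x steps (11 concentrations plus DMSO). IC50 came from non-linear fits of absorbance slopes (OD/min) against log concentration.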

[4] = target: altC-SQR (altC) of D024 SDHC1 KO mitochondria (Zymoseptoria tritici, UniProt A0A1X7RQW2+F9X9V6+O42772); assay: Succinate-quinone (SQR) SDHI sensitivity assay on purified mitochondria, 06STD024 SDHC1 KO; format: biochemical; details: for RF (resistance factor), D024 SDHC1 KO (altC): IC50 ratio compared to IPO323 values; for IC50: mitochondria of 06STD024 ZtSDHC1 deletion mutant (pure altC-SQR), mean of three ± SD
Sequence of altC-SQR (altC) of D024 SDHC1 KO mitochondria (A0A1X7RQW2 36-181): as the sequence (A0A1X7RQW2 36-181) above
Sequence of altC-SQR (altC) of D024 SDHC1 KO mitochondria (O42772 20-297): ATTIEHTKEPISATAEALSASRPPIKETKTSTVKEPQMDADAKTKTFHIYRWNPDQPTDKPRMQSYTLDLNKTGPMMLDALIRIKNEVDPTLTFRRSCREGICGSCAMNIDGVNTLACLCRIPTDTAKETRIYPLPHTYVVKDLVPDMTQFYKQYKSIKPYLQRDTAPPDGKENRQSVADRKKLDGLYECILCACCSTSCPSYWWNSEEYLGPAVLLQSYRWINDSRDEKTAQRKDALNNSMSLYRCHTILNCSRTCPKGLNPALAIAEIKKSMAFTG
Sequence of altC-SQR (altC) of D024 SDHC1 KO mitochondria (F9X9V6 1-193): as the sequence (F9X9V6 1-193) above
Sequence of altC-SQR (altC) of D024 SDHC1 KO mitochondria (F9WWR1 41-643 partner): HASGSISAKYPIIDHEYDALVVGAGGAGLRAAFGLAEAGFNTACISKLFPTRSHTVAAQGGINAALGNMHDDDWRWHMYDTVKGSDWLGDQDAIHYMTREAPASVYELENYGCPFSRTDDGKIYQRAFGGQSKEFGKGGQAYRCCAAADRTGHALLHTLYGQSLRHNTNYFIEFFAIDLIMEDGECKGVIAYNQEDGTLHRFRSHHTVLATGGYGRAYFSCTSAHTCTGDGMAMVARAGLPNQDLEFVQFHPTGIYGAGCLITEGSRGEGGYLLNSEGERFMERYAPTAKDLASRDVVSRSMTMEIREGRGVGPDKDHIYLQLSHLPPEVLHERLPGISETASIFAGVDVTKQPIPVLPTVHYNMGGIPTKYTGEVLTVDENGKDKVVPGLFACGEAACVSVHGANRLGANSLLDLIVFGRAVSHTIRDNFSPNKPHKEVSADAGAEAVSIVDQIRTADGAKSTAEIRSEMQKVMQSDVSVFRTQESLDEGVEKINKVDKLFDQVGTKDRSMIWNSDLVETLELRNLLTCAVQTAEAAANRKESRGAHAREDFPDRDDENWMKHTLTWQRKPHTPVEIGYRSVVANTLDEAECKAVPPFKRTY
Method in brief: as §1

[5] = tested on: SQR (SDHC / altC) of IPO323 pTet::SDHC3 transformant, induced; assay: Succinate-quinone (SQR) SDHI sensitivity assay on purified mitochondria, IPO323 pTet::SDHC3 induced; format: biochemical, Zymoseptoria tritici; details: IPO323 pTet::SDHC3 transformant grown in the absence of doxycycline; mean of three ± SD
Method in brief: as §1

[6] = tested on: Zymoseptoria tritici isolates; assay: Growth tests on solid agar at discriminatory fungicide concentrations; format: cell-based; details: AE agar
Text: Fig 6 Resistance to SHA-SDHIs in Z. tritici EU populations. […] Sensitivity data are sorted by genotype according to the presence of the ZtSDHC3 gene. ** p value of 0.0029 in Welch’s corrected unpaired t-test. (B) Solid agar growth of a collection of 93 Z. tritici isolates sampled in 2009 (same set as above). Individual strains from this collection are boxed and numbered 1 to 93. Boxes A and B correspond to reference resistant strains 06STD024 and 07STGB009 respectively. Box C corresponds to IPO323 reference sensitive isolate. The yellow framed boxes correspond to strains carrying the ZtSDHC3 gene. Yellow arrow designates strain 09STIR20.1 (number 78) carrying a non-functional alt-SDHC (frameshift, S6 Table).
A large scale spotting assay of 96 isolates (Fig 6) was performed using the V&P 96 floating pin tool VP408FP6 (V&P Scientific), equipped with flat tip FP6 pins of 1.58 mm diameter (resulting in approx. 0.4 μl transfer volume). Source cultures for cell spotting were grown in 100 μl YPD liquid medium in a 96 well flat bottom plate (Corning, 3370) at 18°C for 11 days (average cell density of 3.5·10^6/ml), then diluted 1:2x in fresh YPD medium and incubated for another 1.5 h before transfer with the pin tool (approx. 700 cells per spot) onto AE agar with or without fungicide. Plates were incubated at 20°C in the dark for up to 18 days. Smaller scale spotting assays (Figs 4 and 8) were performed using 5 days V8-agar plates inoculums adjusted to 2.10^6 spores.mL^-1 in water and diluted in steps of 3. 2μL of spore suspension was spotted on the plates, and the plates were incubated shielded from light at 21°C for 6 days.

[7] = target: SQR (SDHC / altC) of IPO323 pTet::SDHC3 transformant, repressed (Zymoseptoria tritici, UniProt A0A1X7RQW2+F9X9V6+F9XH52+O42772); assay: Succinate-quinone (SQR) SDHI sensitivity assay on purified mitochondria, IPO323 pTet::SDHC3 repressed; format: biochemical; details: for RF (resistance factor), pTet Repressed (SDHC / altC): IC50 ratio compared to IPO323 values; for IC50: IPO323 pTet::SDHC3 transformant grown in presence of 30 mg.L^-1 doxycycline, mean of three ± SD
Sequence of SQR (SDHC / altC) of IPO323 pTet::SDHC3 transformant, repressed (F9XH52 44-187): as the sequence (F9XH52 44-187) above
Sequence of SQR (SDHC / altC) of IPO323 pTet::SDHC3 transformant, repressed (O42772 20-297): as the sequence (O42772 20-297) above
Sequence of SQR (SDHC / altC) of IPO323 pTet::SDHC3 transformant, repressed (F9X9V6 1-193): as the sequence (F9X9V6 1-193) above
Sequence of SQR (SDHC / altC) of IPO323 pTet::SDHC3 transformant, repressed (A0A1X7RQW2 36-181): as the sequence (A0A1X7RQW2 36-181) above
Sequence of SQR (SDHC / altC) of IPO323 pTet::SDHC3 transformant, repressed (F9WWR1 41-643 partner): as the sequence (F9WWR1 41-643 partner) above
Method in brief: as §1

[8] = read-out: EC50 (nM) Mean, strain 06STD024, liquid culture sensitivity
[9] = read-out: EC50 (nM) Mean, strain 07STGB009, liquid culture sensitivity
[10] = read-out: EC50 (nM) Mean, strain 09STD041, liquid culture sensitivity
[11] = read-out: EC50 (nM) Mean, strain 09STD053, liquid culture sensitivity
[12] = read-out: EC50 (nM) Mean, strain 09STF011, liquid culture sensitivity
[13] = read-out: EC50 (nM) Mean, strain 09STF037, liquid culture sensitivity
[14] = read-out: EC50 (nM) Mean, strain 09STF112, liquid culture sensitivity
[15] = read-out: EC50 (nM) Mean, strain 09STIR20.3, liquid culture sensitivity
[16] = read-out: EC50 (nM) Mean, strain Flu21 (SDHC1_A84I), liquid culture sensitivity
[17] = read-out: EC50 (nM) Mean, strain IPO323, liquid culture sensitivity
[18] = read-out: EC50 (nM) Mean, strain IPO94269, liquid culture sensitivity
[19] = read-out: EC50 (nM) Mean, strain KO_SDHC1_T1, liquid culture sensitivity
[20] = read-out: EC50 (nM) Mean, strain KO_SDHC1_T3, liquid culture sensitivity
[21] = read-out: EC50 (nM) Mean, strain KO_SDHC3_T4, liquid culture sensitivity
[22] = read-out: EC50 (nM) Mean, strain KO_SDHC3_T13, liquid culture sensitivity
[23] = read-out: EC50 (nM) Mean, strain pTet::SDHC3_I78A_T1, liquid culture sensitivity
[24] = read-out: EC50 (nM) Mean, strain pTet::SDHC3_I78A_T5, liquid culture sensitivity
[25] = read-out: EC50 (nM) Mean, strain pTet::SDHC3_I78A_T15, liquid culture sensitivity
[26] = read-out: EC50 (nM) Mean, strain pTet::SDHC3_I78A_T35, liquid culture sensitivity
[27] = read-out: EC50 (nM) Mean, strain pTet::SDHC3_T1, liquid culture sensitivity
[28] = read-out: EC50 (nM) Mean, strain pTet::SDHC3_T2, liquid culture sensitivity
[29] = read-out: EC50 (nM) Mean, strain pTet::SDHC3_T3, liquid culture sensitivity
[30] = read-out: EC50 (nM) Mean, strain pTet::SDHC3_T7, liquid culture sensitivity

Structure (SMILES): O=C(NCCc1ncc(C(F)(F)F)cc1Cl)c1ccccc1C(F)(F)F [Fluopyram]
- RF (resistance factor), 06STD024 (SDHC / altC) [1]: 111.3
- IC50 [1]: 1.39 ± 0.522 µM
- EC50 [2, 8]: 9360 nM
- EC50 [2, 9]: 10900 nM
- EC50 [2, 10]: 1370 nM
- EC50 [2, 11]: 558 nM
- EC50 [2, 12]: 3570 nM
- EC50 [2, 13]: 461 nM
- EC50 [2, 14]: 2890 nM
- EC50 [2, 15]: 419 nM
- EC50 [2, 16]: 4580 nM
- EC50 [2, 17]: 222 nM
- EC50 [2, 18]: 147 nM
- EC50 [2, 19]: 25600 nM
- EC50 [2, 20]: 21200 nM
- EC50 [2, 21]: 350 nM
- EC50 [2, 22]: 351 nM
- EC50 [2, 23]: 354 nM
- EC50 [2, 24]: 818 nM
- EC50 [2, 25]: 552 nM
- EC50 [2, 26]: 143 nM
- EC50 [2, 27]: 16000 nM
- EC50 [2, 28]: 14300 nM
- EC50 [2, 29]: 6750 nM
- EC50 [2, 30]: 24500 nM
- EC50 ([2]; read-out: Fluopyram EC50 in liquid culture, panel of ZtSDHC3 containing isolates, field isolates collected in 2009 carrying ZtSDHC3, from sensitive to resistant): 0.3 to 3.2 µg/mL
- IC50 [3]: 0.0125 ± 0.002 µM
- RF (resistance factor), D024 SDHC1 KO (altC) [4]: 93.4
- RF (resistance factor), D024 SDHC1 KO (altC) ([4]; listed as fluopyram): ~100
- IC50 [4]: 1.16 ± 0.201 µM
- IC50 [5]: 0.547 ± 0.0688 µM
- Growth phenotype on SDHI-amended plate ([6]; strain 06STD024, fluopyram 5 mg.L^-1, 18 DPI (procedure of Fig 6)): Very strong
- Growth phenotype on SDHI-amended plate ([6]; strain 07STGB009, fluopyram 5 mg.L^-1, 18 DPI (procedure of Fig 6)): Very strong
- Growth phenotype on SDHI-amended plate ([6]; strain 09STD041, fluopyram 5 mg.L^-1, 18 DPI (procedure of Fig 6)): Weak
- Growth phenotype on SDHI-amended plate ([6]; strain 09STD053, fluopyram 5 mg.L^-1, 18 DPI (procedure of Fig 6)): Weak
- Growth phenotype on SDHI-amended plate ([6]; strain 09STF011, fluopyram 5 mg.L^-1, 18 DPI (procedure of Fig 6)): Moderate
- Growth phenotype on SDHI-amended plate ([6]; strain 09STF037, fluopyram 5 mg.L^-1, 18 DPI (procedure of Fig 6)): Very weak
- Growth phenotype on SDHI-amended plate ([6]; strain 09STF112, fluopyram 5 mg.L^-1, 18 DPI (procedure of Fig 6)): Strong
- Growth phenotype on SDHI-amended plate ([6]; strain 09STIR20.3, fluopyram 5 mg.L^-1, 18 DPI (procedure of Fig 6)): Very weak
- Growth phenotype on SDHI-amended plate ([6]; strain IPO323, fluopyram 5 mg.L^-1, 18 DPI (procedure of Fig 6)): No
- Growth phenotype on SDHI-amended plate ([6]; strain IPO94269, fluopyram 5 mg.L^-1, 18 DPI (procedure of Fig 6)): No
- RF (resistance factor), pTet Repressed (SDHC / altC) [7]: 1.8
- IC50 [7]: 0.0219 ± 0.0077 µM

Structure (SMILES): CON(C(=O)c1cn(C)nc1C(F)F)[C@@H](C)Cc1c(Cl)cc(Cl)cc1Cl [Pydiflumetofen]
- RF (resistance factor), 06STD024 (SDHC / altC) [1]: 4.6
- IC50 [1]: 0.0014 ± 5e-05 µM
- EC50 [2, 8]: 28.2 nM
- EC50 [2, 9]: 24.5 nM
- EC50 [2, 10]: 19.8 nM
- EC50 [2, 11]: 6.4 nM
- EC50 [2, 12]: 17.8 nM
- EC50 [2, 13]: 8.1 nM
- EC50 [2, 14]: 18.7 nM
- EC50 [2, 15]: 8.1 nM
- EC50 [2, 16]: 163 nM
- EC50 [2, 17]: 4.5 nM
- EC50 [2, 18]: 4.7 nM
- EC50 [2, 19]: 377 nM
- EC50 [2, 20]: 230 nM
- EC50 [2, 21]: 5.1 nM
- EC50 [2, 22]: 5.6 nM
- EC50 [2, 23]: 4.8 nM
- EC50 [2, 24]: 6 nM
- EC50 [2, 25]: 4.9 nM
- EC50 [2, 26]: 2.9 nM
- EC50 [2, 27]: 164 nM
- EC50 [2, 28]: 160 nM
- EC50 [2, 29]: 108 nM
- EC50 [2, 30]: 183 nM
- IC50 [3]: 0.0003 ± 4e-05 µM
- RF (resistance factor), D024 SDHC1 KO (altC) [4]: 4.9
- RF (resistance factor), D024 SDHC1 KO (altC) ([4]; listed as pydiflumetofen): 6
- IC50 [4]: 0.0015 ± 0.0004 µM
- IC50 [5]: 0.0009 ± 0.0003 µM
- Growth phenotype on SDHI-amended plate ([6]; strain 06STD024, pydiflumetofen 0.1 mg.L^-1, 18 DPI (procedure of Fig 6)): Weak
- Growth phenotype on SDHI-amended plate ([6]; strain 06STD024, pydiflumetofen 0.1 mg.L^-1, 18 DPI (procedure of Fig 6), listed as pydiflumetofen): weak growth
- Growth phenotype on SDHI-amended plate ([6]; strain 07STGB009, pydiflumetofen 0.1 mg.L^-1, 18 DPI (procedure of Fig 6)): Weak
- Growth phenotype on SDHI-amended plate ([6]; strain 07STGB009, pydiflumetofen 0.1 mg.L^-1, 18 DPI (procedure of Fig 6), listed as pydiflumetofen): weak growth
- Growth phenotype on SDHI-amended plate ([6]; strain 09STD041, pydiflumetofen 0.1 mg.L^-1, 18 DPI (procedure of Fig 6)): Very weak
- Growth phenotype on SDHI-amended plate ([6]; strain 09STD053, pydiflumetofen 0.1 mg.L^-1, 18 DPI (procedure of Fig 6)): No
- Growth phenotype on SDHI-amended plate ([6]; strain 09STF011, pydiflumetofen 0.1 mg.L^-1, 18 DPI (procedure of Fig 6)): Weak
- Growth phenotype on SDHI-amended plate ([6]; strain 09STF037, pydiflumetofen 0.1 mg.L^-1, 18 DPI (procedure of Fig 6)): Very weak
- Growth phenotype on SDHI-amended plate ([6]; strain 09STF112, pydiflumetofen 0.1 mg.L^-1, 18 DPI (procedure of Fig 6)): Very weak
- Growth phenotype on SDHI-amended plate ([6]; strain 09STIR20.3, pydiflumetofen 0.1 mg.L^-1, 18 DPI (procedure of Fig 6)): Very weak
- Growth phenotype on SDHI-amended plate ([6]; strain IPO323, pydiflumetofen 0.1 mg.L^-1, 18 DPI (procedure of Fig 6)): No
- Growth phenotype on SDHI-amended plate ([6]; strain IPO94269, pydiflumetofen 0.1 mg.L^-1, 18 DPI (procedure of Fig 6)): No
- RF (resistance factor), pTet Repressed (SDHC / altC) [7]: 1.7
- IC50 [7]: 0.0005 ± 0.0001 µM
